{"source": "paper PMC3961306", "about": "“Comparison of the Cancer Gene Targeting and Biochemical Selectivities of All Targeted Kinase Inhibitors Approved for Clinical Use” (PLoS ONE, 2014)", "assay_in_all_cases": "Kinase profiling in a biochemical assay panel (mobility shift assays and ELISA), %-inhibition at 1 μM; selectivity entropy", "key": {"[1]": {"molecular_target": "panel of more than 300 wild-type and mutant kinases (313 kinase panel) (Homo sapiens, UniProt P07949, G691S)", "conditions": "kinase RET(G691S); 1 μM"}, "[2]": {"molecular_target": "T1, panel of more than 300 wild-type and mutant kinases (313 kinase panel) (Homo sapiens, UniProt P29322)", "T1 sequence (P29322 28-1005)": "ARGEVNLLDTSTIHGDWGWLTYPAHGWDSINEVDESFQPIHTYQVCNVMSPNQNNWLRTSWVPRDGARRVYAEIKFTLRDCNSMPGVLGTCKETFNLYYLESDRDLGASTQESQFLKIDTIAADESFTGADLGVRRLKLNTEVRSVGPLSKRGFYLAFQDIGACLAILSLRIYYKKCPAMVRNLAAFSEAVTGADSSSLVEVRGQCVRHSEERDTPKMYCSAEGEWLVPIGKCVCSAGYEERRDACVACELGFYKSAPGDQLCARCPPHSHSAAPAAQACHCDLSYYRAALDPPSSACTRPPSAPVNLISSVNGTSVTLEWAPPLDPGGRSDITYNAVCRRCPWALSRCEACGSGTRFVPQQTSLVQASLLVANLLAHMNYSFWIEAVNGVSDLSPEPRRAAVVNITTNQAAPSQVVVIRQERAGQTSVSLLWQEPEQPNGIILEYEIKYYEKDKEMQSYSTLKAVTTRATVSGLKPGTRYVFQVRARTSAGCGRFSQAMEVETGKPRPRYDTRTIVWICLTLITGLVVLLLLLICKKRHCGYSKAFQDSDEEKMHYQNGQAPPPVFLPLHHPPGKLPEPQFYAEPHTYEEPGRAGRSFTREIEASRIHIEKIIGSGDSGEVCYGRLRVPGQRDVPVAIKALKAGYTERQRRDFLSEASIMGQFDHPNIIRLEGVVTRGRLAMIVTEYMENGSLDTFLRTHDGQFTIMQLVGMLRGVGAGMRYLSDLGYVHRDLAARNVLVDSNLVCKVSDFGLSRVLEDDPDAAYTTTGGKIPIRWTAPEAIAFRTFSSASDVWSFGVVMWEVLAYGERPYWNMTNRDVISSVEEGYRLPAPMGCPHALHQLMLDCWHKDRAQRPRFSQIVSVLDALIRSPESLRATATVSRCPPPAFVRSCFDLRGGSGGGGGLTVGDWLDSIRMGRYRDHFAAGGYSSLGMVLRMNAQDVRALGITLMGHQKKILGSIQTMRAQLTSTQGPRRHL", "conditions": "kinase EPHA8; compound at 1 μM"}, "[3]": {"molecular_target": "panel of more than 300 wild-type and mutant kinases (313 kinase panel) (Homo sapiens, UniProt P53355)", "conditions": "kinase DAPK1; compound at 1 μM"}, "[4]": {"molecular_target": "panel of more than 300 wild-type and mutant kinases (313 kinase panel) (Homo sapiens, UniProt P24723)", "conditions": "kinase PKCη; 1 μM"}, "[5]": {"molecular_target": "panel of more than 300 wild-type and mutant kinases (313 kinase panel) (Homo sapiens, UniProt P14616)", "conditions": "kinase IRR; compound at 1 μM"}, "[6]": {"molecular_target": "panel of more than 300 wild-type and mutant kinases (313 kinase panel) (Homo sapiens, UniProt Q9H2X6)", "conditions": "kinase HIPK2; compound at 1 μM"}, "[7]": {"molecular_target": "panel of more than 300 wild-type and mutant kinases (313 kinase panel) (Homo sapiens, UniProt P29317)", "conditions": "kinase EPHA2; compound at 1 μM"}, "[8]": {"molecular_target": "T2, panel of more than 300 wild-type and mutant kinases (313 kinase panel) (Homo sapiens, UniProt P51955)", "T2 sequence (P51955 1-445)": "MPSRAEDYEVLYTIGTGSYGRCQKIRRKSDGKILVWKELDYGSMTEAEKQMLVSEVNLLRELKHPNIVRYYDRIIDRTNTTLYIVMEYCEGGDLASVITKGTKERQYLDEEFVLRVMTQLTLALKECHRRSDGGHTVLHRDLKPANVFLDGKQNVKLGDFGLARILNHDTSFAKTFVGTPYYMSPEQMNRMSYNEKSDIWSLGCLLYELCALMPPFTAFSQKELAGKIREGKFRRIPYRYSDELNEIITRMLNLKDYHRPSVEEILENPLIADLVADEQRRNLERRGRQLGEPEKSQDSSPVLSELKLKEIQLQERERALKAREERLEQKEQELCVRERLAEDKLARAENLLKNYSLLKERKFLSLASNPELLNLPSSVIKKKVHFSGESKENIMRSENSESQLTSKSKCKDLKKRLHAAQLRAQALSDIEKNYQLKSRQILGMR", "conditions": "kinase NEK2; 1 μM"}}, "data": [{"smiles": "CCCS(=O)(=O)Nc1ccc(F)c(C(=O)c2c[nH]c3ncc(-c4ccc(Cl)cc4)cc23)c1F", "note": "[vemurafenib]", "values": [{"measurement": "%-inhibition of RET(G691S)", "setting": "[1]", "value": 23, "unit": "%"}, {"measurement": "%-inhibition of EPHA8", "setting": "[2]", "value": 7, "unit": "%"}, {"measurement": "%-inhibition of DAPK1", "setting": "[3]", "value": -0.115, "unit": "%"}, {"measurement": "%-inhibition of PKCη", "setting": "[4]", "value": -22, "unit": "%"}, {"measurement": "%-inhibition of IRR", "setting": "[5]", "value": 21, "unit": "%"}, {"measurement": "%-inhibition of HIPK2", "setting": "[6]", "value": -5, "unit": "%"}, {"measurement": "%-inhibition of EPHA2", "setting": "[7]", "value": 0.715, "unit": "%"}, {"measurement": "%-inhibition of NEK2", "setting": "[8]", "value": -1, "unit": "%"}]}]}
